Measured values published in PMC6691788, “Design and synthesis of phthalazine-based compounds as potent anticancer agents with potential antiangiogenic activity via VEGFR-2 inhibition” (Journal of Enzyme Inhibition and Medicinal Chemistry, 2019).

What was measured:
Assay in all cases: NCI 60 cell panel SRB screen
SF-268 = format: cell-based; settings: Homo sapiens
HS 578T = format: cell-based; settings: Homo sapiens
HCT-15 = format: cell-based; settings: Homo sapiens
RPMI-8226 = format: cell-based; settings: Homo sapiens
HCT-116 = format: cell-based; settings: Homo sapiens
SNB-19 = format: cell-based; settings: Homo sapiens
LOX IMVI = format: cell-based; settings: Homo sapiens
CCRF-CEM = format: cell-based, human; settings: Homo sapiens
HOP-92 = format: cell-based; settings: Homo sapiens
U251 = format: cell-based; settings: Homo sapiens, U-251
SN12C = format: cell-based; settings: Homo sapiens
ACHN = format: cell-based; settings: Homo sapiens
BT-549 = format: cell-based; settings: Homo sapiens
UACC-257 = format: cell-based; settings: Homo sapiens
MOLT-4 = format: cell-based; settings: Homo sapiens
KM12 = format: cell-based; settings: Homo sapiens
SNB-75 = format: cell-based; settings: Homo sapiens
UACC-62 = format: cell-based
MCF7 = format: cell-based; settings: Homo sapiens
DU-145 = format: cell-based; settings: Homo sapiens
SR = format: cell-based; settings: Homo sapiens
MDA-MB 231/ATCC = format: cell-based; settings: Homo sapiens
SK-OV-3 = format: cell-based; settings: Homo sapiens
K-562 = format: cell-based; settings: Homo sapiens, K562
CAKI-1 = format: cell-based, human
NCI-H226 = format: cell-based; settings: Homo sapiens
T-47D = format: cell-based; settings: Homo sapiens, T47D
TK-10 = format: cell-based, human
NCI-H322M = format: cell-based; settings: Homo sapiens
HOP-62 = format: cell-based; settings: Homo sapiens
HCC-2998 = format: cell-based; settings: Homo sapiens
OVCAR-5 = format: cell-based; settings: Homo sapiens
[1] = 5 log dose, 48 h, read-out: LC50 (the source's name)
[2] = read-out: percent cell growth promotion
[3] = single dose 10 μM, read-out: percent cell growth promotion

O=C(Nc1ccc(Cl)cc1)Nc1ccc(Oc2nncc3ccccc23)cc1 [Compound 7b, 1–(4-Chlorophenyl)-3–(4-(phthalazin-1-yloxy)phenyl)urea]
GI50 (SF-268; SF-268, 5 log dose): 1350 nM
IC (TGI) (SF-268; SF-268, 5 log dose): 7.21 µM
CC50 (SF-268; SF-268, 5 log dose, 48 h, read-out: LC50 (the source's name)): 70.2 µM
activity at 10 µM (SF-268; SF-268, single dose 10 μM, read-out: percent cell growth promotion): 12.6%
GI50 (HS 578T; Hs-578T): 690 nM
IC (TGI) (HS 578T; Hs-578T, read-out: TGI): 47 µM
activity at 10 µM (HS 578T; Hs-578T, read-out: percent cell growth promotion): 37.5%
CC50 (HS 578T; HS 578T, 5 log dose, 48 h, read-out: LC50 (the source's name)): > 100 µM
GI50 (HCT-15; HCT-15, 5 log dose): 960 nM
IC (TGI) (HCT-15; HCT-15, 5 log dose): 3.08 µM
CC50 (HCT-15; HCT-15, 5 log dose, 48 h, read-out: LC50 (the source's name)): 9.67 µM
activity at 10 µM (HCT-15; HCT-15, single dose 10 μM, read-out: percent cell growth promotion): 2.76%
GI50 (RPMI-8226; RPMI-8226, 5 log dose): 480 nM
IC (TGI) (RPMI-8226; RPMI-8226, 5 log dose): 4.58 µM
CC50 (RPMI-8226; RPMI-8226, 5 log dose, 48 h, read-out: LC50 (the source's name)): > 100 µM
activity at 10 µM (RPMI-8226; RPMI-8226, single dose 10 μM, read-out: percent cell growth promotion): -0.08%
GI50 (HCT-116; HCT-116, 5 log dose): 320 nM
IC (TGI) (HCT-116; HCT-116, 5 log dose): 1.2 µM
LC50 (lethal concentration 50%) (HCT-116; HCT-116, 5 log dose, 48 h): 4.65 µM
activity at 10 µM (HCT-116; HCT-116, single dose 10 μM, read-out: percent cell growth promotion): -56.9%
GI50 (SNB-19; SNB-19, 5 log dose): 1740 nM
IC (TGI) (SNB-19; SNB-19, 5 log dose): 4.79 µM
CC50 (SNB-19; SNB-19, 5 log dose, 48 h, read-out: LC50 (the source's name)): 58.3 µM
activity at 10 µM (SNB-19; SNB-19, single dose 10 μM, read-out: percent cell growth promotion): -76.5%
GI50 (LOX IMVI): 160 nM
CC50 (LOX IMVI; [1]): 1630 nM
IC (TGI) (LOX IMVI; read-out: TGI): 0.45 µM
activity at 10 µM (LOX IMVI; [2]): -77.3%
GI50 (CCRF-CEM; 5 log dose): 320 nM
CC50 (CCRF-CEM; [1]): > 100 µM
activity at 10 µM (CCRF-CEM; [3]): 8.7%
GI50 (HOP-92; HOP-92, 5 log dose): 1640 nM
IC (TGI) (HOP-92; HOP-92, 5 log dose): 4.37 µM
CC50 (HOP-92; HOP-92, 5 log dose, 48 h, read-out: LC50 (the source's name)): 17.1 µM
activity at 10 µM (HOP-92; HOP-92, single dose 10 μM, read-out: percent cell growth promotion): 12.9%
GI50 (U251; U251, 5 log dose): 1010 nM
IC (TGI) (U251; U251, 5 log dose): 2.38 µM
CC50 (U251; U251, 5 log dose, 48 h, read-out: LC50 (the source's name)): 5.61 µM
activity at 10 µM (U251; U251, single dose 10 μM, read-out: percent cell growth promotion): -31.1%
GI50 (SN12C; 5 log dose): 1030 nM
IC (TGI) (SN12C; 5 log dose): 3.58 µM
CC50 (SN12C; [1]): > 100 µM
activity at 10 µM (SN12C; [3]): -3.83%
GI50 (ACHN; 5 log dose): 1050 nM
IC (TGI) (ACHN; 5 log dose): 2.33 µM
CC50 (ACHN; [1]): 5.18 µM
activity at 10 µM (ACHN; [3]): -15.1%
GI50 (BT-549; BT-549): 2080 nM
IC (TGI) (BT-549; BT-549, read-out: TGI): 7.43 µM
activity at 10 µM (BT-549; BT-549, read-out: percent cell growth promotion): -10.3%
CC50 (BT-549; BT-549, 5 log dose, 48 h, read-out: LC50 (the source's name)): 58.1 µM
GI50 (UACC-257; UACC-257): 150 nM
IC (TGI) (UACC-257; UACC-257, read-out: TGI): 4.04 µM
activity at 10 µM (UACC-257; UACC-257, read-out: percent cell growth promotion): 34.4%
CC50 (UACC-257; UACC-257, 5 log dose, 48 h, read-out: LC50 (the source's name)): 12.9 µM
GI50 (MOLT-4; MOLT-4, 5 log dose): 370 nM
IC (TGI) (MOLT-4; MOLT-4, 5 log dose): > 100 µM
CC50 (MOLT-4; MOLT-4, 5 log dose, 48 h, read-out: LC50 (the source's name)): > 100 µM
activity at 10 µM (MOLT-4; MOLT-4, single dose 10 μM, read-out: percent cell growth promotion): 3.99%
GI50 (KM12; KM12, 5 log dose): 880 nM
IC (TGI) (KM12; KM12, 5 log dose): 2.65 µM
CC50 (KM12; KM12, 5 log dose, 48 h, read-out: LC50 (the source's name)): 7.38 µM
activity at 10 µM (KM12; KM12, single dose 10 μM, read-out: percent cell growth promotion): -32.3%
GI50 (SNB-75; SNB-75, 5 log dose): 450 nM
IC (TGI) (SNB-75; SNB-75, 5 log dose): 1.95 µM
LC50 (concentration killing 50% of cells) (SNB-75; SNB-75, 5 log dose, 48 h): 5.2 µM
activity at 10 µM (SNB-75; SNB-75, single dose 10 μM, read-out: percent cell growth promotion): -3.13%
GI50 (UACC-62; Homo sapiens, UACC-62): 1080 nM
activity at 10 µM (UACC-62; Homo sapiens, UACC-62, read-out: percent cell growth promotion): -14.3%
CC50 (UACC-62; Homo sapiens, UACC-62, 5 log dose, 48 h, read-out: LC50 (the source's name)): 14 µM
TGI (UACC-62; UACC-62, 5 log dose): 3.46 µM
IC (TGI) (MCF7; MCF7, read-out: TGI): 1.89 µM
activity at 10 µM (MCF7; MCF7, read-out: percent cell growth promotion): 14.3%
GI50 (MCF7; MCF7, 5 log dose, read-out: GI50): 320 nM
GI50 (DU-145; DU-145, 5 log dose): 730 nM
IC (TGI) (DU-145; DU-145, 5 log dose): 2.08 µM
CC50 (DU-145; DU-145, 5 log dose, 48 h, read-out: LC50 (the source's name)): 4.88 µM
activity at 10 µM (DU-145; DU-145, single dose 10 μM, read-out: percent cell growth promotion): 11.2%
GI50 (SR; 5 log dose): 400 nM
IC (TGI) (SR; 5 log dose): > 100 µM
CC50 (SR; [1]): > 100 µM
activity at 10 µM (SR; [3]): 2.64%
GI50 (MDA-MB 231/ATCC; MDA-MB-231): 390 nM
IC (TGI) (MDA-MB 231/ATCC; MDA-MB-231, read-out: TGI): 3.68 µM
activity at 10 µM (MDA-MB 231/ATCC; MDA-MB-231, read-out: percent cell growth promotion): -25.2%
CC50 (MDA-MB 231/ATCC; MDA-MB-231, MDA-MDA 231/ATCC, 5 log dose, 48 h, read-out: LC50 (the source's name)): 42.4 µM
GI50 (SK-OV-3; SK-OV-3, 5 log dose): 1740 nM
IC (TGI) (SK-OV-3; SK-OV-3, 5 log dose): 5.48 µM
CC50 (SK-OV-3; SK-OV-3, 5 log dose, 48 h, read-out: LC50 (the source's name)): 27.2 µM
activity at 10 µM (SK-OV-3; SK-OV-3, single dose 10 μM, read-out: percent cell growth promotion): 56.7%
GI50 (K-562; K-562, 5 log dose): 370 nM
IC (TGI) (K-562; K-562, 5 log dose): > 100 µM
CC50 (K-562; K-562, 5 log dose, 48 h, read-out: LC50 (the source's name)): > 100 µM
activity at 10 µM (K-562; K-562, single dose 10 μM, read-out: percent cell growth promotion): 5.58%
TGI (CAKI-1; CAKI-1, 5 log dose): 8.70 µM
GI50 (CAKI-1; Homo sapiens, CAKI-1, 5 log dose): 2720 nM
CC50 (CAKI-1; Homo sapiens, CAKI-1, 5 log dose, 48 h, read-out: LC50 (the source's name)): 43.9 µM
activity at 10 µM (CAKI-1; Homo sapiens, CAKI-1, single dose 10 μM, read-out: percent cell growth promotion): 18.7%
GI50 (NCI-H226; NCI-H226, 5 log dose): 620 nM
IC (TGI) (NCI-H226; NCI-H226, 5 log dose): 5.42 µM
CC50 (NCI-H226; NCI-H226, 5 log dose, 48 h, read-out: LC50 (the source's name)): > 100 µM
activity at 10 µM (NCI-H226; NCI-H226, single dose 10 μM, read-out: percent cell growth promotion): -54.5%
GI50 (T-47D): 240 nM
IC (TGI) (T-47D; read-out: TGI): 7.68 µM
activity at 10 µM (T-47D; [2]): 10.2%
CC50 (T-47D; T-47D, 5 log dose, 48 h, read-out: LC50 (the source's name)): > 100 µM
GI50 (TK-10; Homo sapiens, TK-10, 5 log dose): 2120 nM
CC50 (TK-10; Homo sapiens, TK-10, 5 log dose, 48 h, read-out: LC50 (the source's name)): 8.64 µM
activity at 10 µM (TK-10; Homo sapiens, TK-10, single dose 10 μM, read-out: percent cell growth promotion): 27.5%
TGI (TK-10; TK-10, 5 log dose): 4.28 µM
GI50 (NCI-H322M; 5 log dose): 2600 nM
IC (TGI) (NCI-H322M; 5 log dose): 9.51 µM
CC50 (NCI-H322M; [1]): 34.9 µM
activity at 10 µM (NCI-H322M; [3]): 60.9%
GI50 (HOP-62; HOP-62, 5 log dose): 1090 nM
IC (TGI) (HOP-62; HOP-62, 5 log dose): 4.32 µM
CC50 (HOP-62; HOP-62, 5 log dose, 48 h, read-out: LC50 (the source's name)): 47.7 µM
activity at 10 µM (HOP-62; HOP-62, single dose 10 μM, read-out: percent cell growth promotion): 26.7%
GI50 (HCC-2998; HCC-2998, 5 log dose): 1840 nM
IC (TGI) (HCC-2998; HCC-2998, 5 log dose): 3.48 µM
LC50 (50% lethal concentration) (HCC-2998; HCC-2998, 5 log dose, 48 h): 6.57 µM
activity at 10 µM (HCC-2998; HCC-2998, single dose 10 μM, read-out: percent cell growth promotion): -42.2%
GI50 (OVCAR-5; OVCAR-5, 5 log dose): 1890 nM
IC (TGI) (OVCAR-5; OVCAR-5, 5 log dose): 4.47 µM
CC50 (OVCAR-5; OVCAR-5, 5 log dose, 48 h, read-out: LC50 (the source's name)): 12.6 µM
activity at 10 µM (OVCAR-5; OVCAR-5, single dose 10 μM, read-out: percent cell growth promotion): -16%
